In ChEMBL document CHEMBL1201862, “PubChem BioAssay data set” (2004):
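Method: 48-hour compound exposure of cells in 96-well plates, five concentrations, linear interpolation of endpoints. GI50 = concentration required for 50% inhibition of growth.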 The source made the active and inactive calls. No stated cut-off is given here; in the data, active = GI50 up to about 1.1 µM and inactive = higher.

Tests used:
Experiment in all cases: growth of human tumour cells (NCI), 48 h
[1] = tested on: ACHN
[2] = tested on: PC-3
[3] = tested on: M14
[4] = tested on: RXF 393
[5] = tested on: LOX IMVI
[6] = tested on: SF-295
[7] = tested on: U-251
[8] = tested on: SK-MEL-28
[9] = tested on: NCI-H460
[10] = tested on: Hs-578T
[11] = tested on: 786-0
[12] = tested on: SK-MEL-5
[13] = tested on: T47D
[14] = tested on: EKVX
[15] = tested on: A549
[16] = tested on: NCI-H522
[17] = tested on: HT-29
[18] = tested on: NCI-H23
[19] = tested on: UO-31

Measured: GI50

CSc1cc(Cl)c(C)cc1S(=O)(=O)NC(=O)NNc1ccc(F)c(Cl)c1
inactive: [1] > 100 µM | [2] > 100 µM | [3] > 100 µM | [4] > 100 µM | [5] > 100 µM | [6] > 100 µM | [7] > 100 µM | [8] > 100 µM | [9] > 100 µM | [10] > 100 µM | [11] > 100 µM | [12] > 100 µM | [13] > 100 µM | [14] > 100 µM | [15] > 100 µM | [16] > 100 µM | [17] > 100 µM

CC1(c2ccccc2)N=c2[nH]cnc2=C(C(N)=O)N1 (centres undefined)
inactive: [1] > 100 µM | [2] > 100 µM | [18] > 100 µM | [3] > 100 µM | [4] > 100 µM | [5] > 100 µM | [6] > 100 µM | [7] > 100 µM | [8] > 100 µM | [9] > 100 µM | [10] > 100 µM | [11] > 100 µM | [12] > 100 µM | [13] > 100 µM | [14] > 100 µM | [15] > 100 µM | [16] > 100 µM | [17] > 100 µM

CC(C)=NNC(=S)NC12CC3CC(CC(C3)C1)C2
inactive: [1] > 100 µM | [18] > 100 µM | [3] > 100 µM | [4] > 100 µM | [5] > 100 µM | [6] > 100 µM | [7] > 100 µM | [8] > 100 µM | [9] > 100 µM | [11] > 100 µM | [12] > 100 µM | [14] > 100 µM | [19] > 100 µM | [15] > 100 µM | [16] > 100 µM | [17] > 100 µM

CSc1cnc2ccccc2c1Sc1cn(C)c2ccccc2c1=O
inactive: [1] > 100 µM | [18] 19.5 µM | [3] > 100 µM | [4] 38.4 µM | [5] 14.6 µM | [6] 22.6 µM | [7] 7.14 µM | [8] 27.9 µM | [9] 13.2 µM | [11] 30.3 µM | [12] 24.4 µM | [14] 29.3 µM | [19] 25.5 µM | [15] 8.17 µM | [17] 58.5 µM

Cn1c2c(c3ccccc31)CCN(CCN1CCN(c3ccccc3)CC1)C2=O
inactive: [1] > 100 µM | [18] 33.5 µM | [3] > 100 µM | [4] 26.7 µM | [5] > 100 µM | [6] > 100 µM | [7] > 100 µM | [8] > 100 µM | [9] > 100 µM | [11] 68.2 µM | [12] 61.1 µM | [14] > 100 µM | [19] > 100 µM | [15] > 100 µM | [16] 26.3 µM | [17] > 100 µM

O=C1CSc2nc3ccccc3n2/C=N\N1
inactive: [1] > 100 µM | [2] > 100 µM | [18] > 100 µM | [3] > 100 µM | [4] > 100 µM | [5] > 100 µM | [6] > 100 µM | [7] > 100 µM | [8] > 100 µM | [9] > 100 µM | [11] > 100 µM | [12] > 100 µM | [19] > 100 µM | [15] > 100 µM | [16] > 100 µM | [17] > 100 µM

C=C1CC(C/C=C(\C)CC2CC(=C)C(=O)O2)OC1=O (centres undefined)
inactive: [1] > 100 µM | [18] > 100 µM | [3] > 100 µM | [4] > 100 µM | [5] > 100 µM | [6] > 100 µM | [7] > 100 µM | [8] > 100 µM | [9] > 100 µM | [11] > 100 µM | [12] > 100 µM | [14] > 100 µM | [19] > 100 µM | [15] > 100 µM | [17] > 100 µM

Cc1ccc(S(=O)OCC23CC4CC(CC(C4)C2)C3)cc1 (centres undefined)
inactive: [1] > 100 µM | [18] > 100 µM | [3] > 100 µM | [4] > 100 µM | [5] > 100 µM | [6] > 100 µM | [7] > 100 µM | [8] > 100 µM | [9] > 100 µM | [11] > 100 µM | [12] > 100 µM | [14] > 100 µM | [19] 72.8 µM | [15] > 100 µM | [16] > 100 µM | [17] > 100 µM
